Measurements as given in patent US20100286092A1, “BETA-LACTAMASE INHIBITORS” (priority 2007, published 2010).

How the values were obtained:
Details in all cases: in the presence of a fixed amount (8 μg/mL) of Ceftazidime; CAMHB, 16-20 hours at 37° C.
[1] = system: E. cloacae expressing the Class C P99+; assay type: cell-based
Source text: (§1) To determine the ability of test compounds to potentiate the inhibition of the growth of bacterial strains producing beta-lactamase enzymes, classic cell based screening assays were employed. Four bacteria strains producing beta-lactamase enzymes were used: K. pneumoniae expressing the Class A Extended Spectrum Beta-Lactamase (ESBL) CTX-M-15, E. coli expressing the Class A ESBL SHV-5, E. cloacae expressing the Class C P99+, and K. pneumoniae expressing the Class A carbapenemase KPC-2. In order to evaluate the ability of test compounds to inhibit beta-lactamase activity, Applicants used a modification of the broth microdilution assay. The assay was conducted in Cation Adjusted Mueller Hinton Broth (CAMHB, BD #212322, BD Diagnostic Systems, Sparks, Md.). Bacteria strains were grown for 3-5 hours in CAMBH broth. All four strains were grown in presence of 50 μg/mL ampicillin to ensure resistance is maintained. In the meantime, test compounds were diluted in DMSO to a 0.1 mg/mL stock. The compounds were added to a microtiter plate and were diluted in 2-fold serial dilutions in CAMHB in a final concentration range of 8 μg/mL to 0.015 μg/ml. An overlay of CAMHB containing a cephalosporin was added to the compounds at a final static concentration of 8 μg/ml. […] Each of these compound plates are made in quadruplicate, one for each bacteria strain. In addition to the titration of test compounds the MICs of a panel of cephalosporins is also tested to ensure the strains are behaving consistently from test to test. Once the test compound and cephalosporin are added the plates can be inoculated. Inocula are conducted according to CLSI broth microdilution method. After inoculation the plates are incubated for 16-20 hours at 37° C. then the Minimal Inhibitory Concentration (MIC) of the test compound is determined visually.
(§2) Using the methodology described above, examples of the current invention were evaluated for their ability to inhibit the growth of β-lactamase producing bacteria in the presence of a β-lactam antibiotic. […] NT=Not Tested.

[2] = system: E. coli expressing the Class A ESBL SHV-5; assay type: cell-based
Source text: as §1, §2

[3] = system: K. pneumoniae expressing the Class A Extended Spectrum Beta-Lactamase (ESBL) CTX-M-15; assay type: cell-based
Source text: as §1, §2

[4] = system: K. pneumoniae expressing the Class A carbapenemase KPC-2
Source text: as §1, §2

SMILES: Cl.NCCOc1cccc(CC(=O)N[C@@H](Cc2cccc(C(=O)O)c2O)B(O)O)c1 [Example 4, (1R)-1-[3-(2-amino)-ethoxy-phenyl]acetylamino-1-(3-carboxy-2-hydroxy)benzyl-methylboronic acid hydrochloride]
- MIC of example compound, E. cloacae P99 AmpC + 8 μg/mL CAZ [1]: C (C represents an MIC of <1 μg/mL)
- MIC of example compound, E. coli SHV-5 + 8 μg/mL CAZ [2]: C (C represents an MIC of <1 μg/mL)
- MIC of example compound, K. pneumoniae CTX-M-15 + 8 μg/mL CAZ [3]: C (C represents an MIC of <1 μg/mL)
- MIC of example compound, K. pneumoniae KPC-2 + 8 μg/mL CAZ [4]: C (C represents an MIC of <1 μg/mL)

SMILES: O=C(Cc1ccccc1)N[C@@H](Cc1cccc(C(=O)O)c1O)B(O)O [Example 10]
- MIC of example compound, E. cloacae P99 AmpC + 8 μg/mL CAZ [1]: C (C represents an MIC of <1 μg/mL)
- MIC of example compound, E. coli SHV-5 + 8 μg/mL CAZ [2]: C (C represents an MIC of <1 μg/mL)
- MIC of example compound, K. pneumoniae CTX-M-15 + 8 μg/mL CAZ [3]: C (C represents an MIC of <1 μg/mL)
- MIC of example compound, K. pneumoniae KPC-2 + 8 μg/mL CAZ [4]: C (C represents an MIC of <1 μg/mL)

SMILES: CCCCC(=O)N[C@@H](Cc1cccc(C(=O)O)c1O)B(O)O [Example 23, (1R)-1-(pentanoylamino)-2-(2-hydroxy-3-carboxyphenyl)ethyl-1-boronic acid]
- MIC of example compound, E. cloacae P99 AmpC + 8 μg/mL CAZ [1]: C (C represents an MIC of <1 μg/mL)
- MIC of example compound, E. coli SHV-5 + 8 μg/mL CAZ [2]: C (C represents an MIC of <1 μg/mL)
- MIC of example compound, K. pneumoniae CTX-M-15 + 8 μg/mL CAZ [3]: C (C represents an MIC of <1 μg/mL)
- MIC of example compound, K. pneumoniae KPC-2 + 8 μg/mL CAZ [4]: C (C represents an MIC of <1 μg/mL)

SMILES: Nc1nc(CC(=O)N[C@@H](Cc2cccc(C(=O)O)c2O)B(O)O)cs1.O=CO [Example 39, (1R)-1-(2-Amino-thiazol-4-yl)-acetylamino-1-(3-carboxy-2-hydroxy)benzyl-methylboronic acid formate salt]
- MIC of example compound, E. cloacae P99 AmpC + 8 μg/mL CAZ [1]: C (C represents an MIC of <1 μg/mL)
- MIC of example compound, E. coli SHV-5 + 8 μg/mL CAZ [2]: C (C represents an MIC of <1 μg/mL)
- MIC of example compound, K. pneumoniae CTX-M-15 + 8 μg/mL CAZ [3]: C (C represents an MIC of <1 μg/mL)
- MIC of example compound, K. pneumoniae KPC-2 + 8 μg/mL CAZ [4]: C (C represents an MIC of <1 μg/mL)

SMILES: NCC(=O)N[C@@H](Cc1cccc(C(=O)O)c1O)B(O)O.O=CO [Example 41, (1R)-1-(2-aminoacetylamino)-2-(2-hydroxy-3-carboxyphenyl)ethyl-1-boronic acid formate salt]
- MIC of example compound, E. cloacae P99 AmpC + 8 μg/mL CAZ [1]: A (A represents an MIC>8 μg/mL)
- MIC of example compound, E. coli SHV-5 + 8 μg/mL CAZ [2]: A (A represents an MIC>8 μg/mL)
- MIC of example compound, K. pneumoniae CTX-M-15 + 8 μg/mL CAZ [3]: A (A represents an MIC>8 μg/mL)
- MIC of example compound, K. pneumoniae KPC-2 + 8 μg/mL CAZ [4]: C (C represents an MIC of <1 μg/mL)
